US11260048B2, “Compounds and compositions for inhibiting retinal pigment epithelium degeneration and methods using the same” (The Schepens Eye Research Institute, Inc., priority 2017, dated 2022)
“Also recorded” adds a separate entry of the source.

What was measured:
ARPE-19 cells [1] = assay: RPE protection assay: ox-LDL-induced cell death, LDH release; format: cell-based, Human; conditions: for cytotoxicity at 0.43 µM: compound 0.43 μM; for cytotoxicity at 1.4 µM: compound 1.4 μM; for protective effect against ox-LDL-induced RPE cell death: high dose 10.4 μM; for relative RPE protective activity compared with other compounds: ox-LDL 200 μg/ml (FIGS. 5, 7); for cytotoxicity at 4.3 µM: compound 4.3 μM
Procedure: FIG. 2 is a graph showing dose-dependent inhibition of ox-LDL-induced RPE death by trolox. […] Data=mean±standard error of the mean (SEM), non-linear regression (GraphPad Prism 6).
FIGS. 5B and 5C are graphs showing RPE protection by selective anti-oxidants with a hindered phenol group. ARPE-19 cells were treated with ox-LDL (200 μg/ml) with and without different concentrations of various anti-oxidants. Cell death was measured by LDH release assay. Data=mean±SEM, *P<0.05, ***P<0.001 compared to ox-LDL group, ANOVA.
FIG. 6 is a graph comparing RPE protection activity of hindered phenol-containing 2,2,5,7,8-pentamethyl-6-chromanol (PMC) and selective inhibitors of nucleotide-binding domain, leucine-rich-containing family, pyrin domain-containing-3 (NLRP3) inflammasome activation. ARPE-19 cells were treated with ox-LDL (200 μg/ml) with and without different concentrations of PMC and selective inhibitors of NLRP3 inflammasome activation, MCC950 and isoliquiritigenin. Cell death was measured by LDH release assay. Data=mean±SEM, ***P<0.001 compared to ox-LDL group, ANOVA.
FIGS. 7B and 7C are graphs that show RPE protection by different experimental analogs of trolox and BHT. ARPE-19 cells were treated with ox-LDL (200 μg/ml) with and without different concentrations of the different analogs of trolox and BHT for 48 hours, cell death was determined by LDH assay. Note that many of the compounds were able to suppress ox-LDL-induced cell death similar to PMC. Data=mean±SEM, *P<0.05, ***P<0.001 compared to ox-LDL group, ANOVA.
ARPE-19 cells: Human ARPE-19 cells (ATCC, Manassas, Va.) were propagated as described previously (Tseng, W. A., et al., Invest Ophthalmol Vis Sci, 2013. 54(1): p. 110-20). Cells were cultured in DMEMIF12 medium (Lonza, Walkersville, Md.) supplemented with 10% fetal bovine serum (FBS) (Atlanta Biologicals, Lawrenceville, Ga.), 2 mM L-glutamine (Lonza), and 100 U/ml penicillin−100 μg/ml streptomycin (Lonza) (complete media), and passaged at a ratio of 1:2 to 1:4 using trypsin-versene (Lonza). Prior to experiments, cells were maintained in 1% FBS medium for about 3 weeks to obtain ARPE-19 cells with differentiated phenotypes. The transepithelial electrical resistance (TER) of each batch of ARPE-19 cells was measured in cells cultured on laminin-coated 0.4 μm-pore transwell membranes (Corning, Mass.) to ensure it was at least 50 ohm·cm2 (EVOM2 Voltohmmeter, World Precision Instruments, Inc., Sarasota, Fla.) before the cells were used for experiments.
ARPE-19 cells were treated with ox-LDL (200 μg/ml) with and without different concentrations of the selected analogs for 48 hours, cell death was determined by LDH assay.

ARPE-19 cells [2] = assay: Lysosomal integrity, LysoTracker staining; format: cell-based, Human
Procedure: FIG. 3 is a graph showing that trolox dose-dependently suppresses ox-LDL-induced lysosomal destabilization in RPE. ARPE-19 cells were treated with ox-LDL with and without different concentrations of trolox for 36 hours. Lysosomal integrity was determined by LysoTracker staining (ThermoFisher Scientific), followed by image analysis to quantify the number of intact lysosomes per cell. […] Data=mean±SEM, *P<0.05, **P<0.01, ***P<0.001 compared to ox-LDL group, analysis of variance (ANOVA).
(§1) Lysosomal integrity and NF-κB activation: ARPE-19 cells were treated with ox-LDL with and without different concentrations of trolox for 36 hours. Lysosomal integrity was determined by LysoTracker staining (ThermoFisher Scientific), followed by image analysis to quantify the number of intact lysosomes per cell. […] Antibody specific for NF-κB p65 (Cell Signaling, Danvers, Mass.) was used for the immunostaining.

ARPE-19 cells [3] = assay: ox-LDL-induced ROS formation, ROS-ID Total ROS detection kit; conditions: ox-LDL 200 μg/ml, 28 hours (FIG. 1)
NF-κB = NF-κB activation, nuclear translocation of NF-κB p65 by immunostaining; format: cell-based, Human; conditions: ox-LDL 200 μg/ml, trolox 10.4 μM, 36 hours (FIG. 4)
Procedure: as §1

[4] = Homo sapiens, ARPE-19, ox-LDL 200 μg/ml, 48 hours, LDH assay, read-out: Protective activity against 200 μg/ml ox-LDL (% cell death, compound concentration)

SMILES: Cc1c(C)c2c(c(C)c1O)CCC(C)(C(=O)N(C)CCc1cnn(C)c1)O2 (centres unmarked) [J]
- cytotoxicity at 0.43 µM (ARPE-19 cells [1]; [4]): < 10%

SMILES: Cc1c(C)c2c(c(C)c1O)CCC(C)(C(=O)N(C)Cc1ncon1)O2 (centres unmarked) [K]
- cytotoxicity at 1.4 µM (ARPE-19 cells [1]; [4]): < 10%

SMILES: Cc1c(C)c2c(c(C)c1O)CCC(C)(C(=O)N(C)Cc1ncc[nH]1)O2 (centres unmarked) [L]
- cytotoxicity at 1.4 µM (ARPE-19 cells [1]; [4]): < 10%

SMILES: CC(C)(O)c1coc(S(=O)(=O)NC(=O)Nc2c3c(cc4c2CCC4)CCC3)c1 [MCC950, reference compound]
- protective effect against ox-LDL-induced RPE cell death (ARPE-19 cells [1]; ox-LDL 200 μg/ml (FIG. 6)): did not have any protective effect

SMILES: Cc1noc(C)c1CNC(=O)C1(C)CCc2c(C)c(O)c(C)c(C)c2O1 (centres unmarked) [M]
- cytotoxicity at 0.43 µM (ARPE-19 cells [1]; [4]): < 10%

SMILES: Cc1cc2n(n1)CCN(C(=O)C1(C)CCc3c(C)c(O)c(C)c(C)c3O1)C2 (centres unmarked) [N]
- cytotoxicity at 1.4 µM (ARPE-19 cells [1]; [4]): < 10%

SMILES: Cc1c(C)c2c(c(C)c1O)CCC(C)(C(=O)N1CCC(c3ncc[nH]3)CC1)O2 (centres unmarked) [O]
- cytotoxicity at 1.4 µM (ARPE-19 cells [1]; [4]): < 10%

SMILES: Cc1c(C)c2c(c(C)c1O)CCC(C)(C)O2 [PMC, 2,2,5,7,8-pentamethyl-6-chromanol, reference compound]
- protection from ox-LDL-induced RPE cell death (ARPE-19 cells [1]; 0.43 μM, ox-LDL 200 μg/ml (FIG. 6)): > 95%
- relative RPE protective activity compared with other compounds (ARPE-19 cells [1]): significantly more effective; also recorded: significantly more potent than trolox and butylated hydroxyl toluene (BHT)

SMILES: CCc1cc(CN(C)C(=O)C2(C)CCc3c(C)c(O)c(C)c(C)c3O2)on1 (centres unmarked) [P]
- cytotoxicity at 0.14 µM (ARPE-19 cells [1]; Homo sapiens, compound 0.14 μM, ARPE-19, ox-LDL 200 μg/ml, 48 hours, LDH assay, read-out: Protective activity against 200 μg/ml ox-LDL (% cell death, compound concentration)): ~60%
- cytotoxicity at 0.43 µM (ARPE-19 cells [1]; [4]): < 10%

SMILES: Cc1c(C)c2c(c(C)c1O)CCC(C)(C(=O)NCCNS(C)(=O)=O)O2 (centres unmarked) [Q]
- cytotoxicity at 1.4 µM (ARPE-19 cells [1]; [4]): ~50%
- cytotoxicity at 4.3 µM (ARPE-19 cells [1]; [4]): < 10%

SMILES: Cc1c(C)c2c(c(C)c1O)CCC(C)(C(=O)N1CCOCC1)O2 (centres unmarked) [R]
- cytotoxicity at 1.4 µM (ARPE-19 cells [1]; [4]): < 10%

SMILES: Cc1c(C)c2c(c(C)c1O)CCC(C)(C(=O)NCCCn1cncn1)O2 (centres unmarked) [S]
- cytotoxicity at 4.3 µM (ARPE-19 cells [1]; [4]): < 10%

SMILES: CCN(Cc1ccccn1)C(=O)C1(C)CCc2c(C)c(O)c(C)c(C)c2O1 (centres unmarked) [T]
- cytotoxicity at 1.4 µM (ARPE-19 cells [1]; [4]): < 10%

SMILES: Cc1c(C)c2c(c(C)c1O)CCC(C)(C(=O)N1CC(n3cccn3)C1)O2 (centres unmarked) [U]
- cytotoxicity at 1.4 µM (ARPE-19 cells [1]; [4]): < 10%

SMILES: CCN(Cc1noc(COC)n1)C(=O)C1(C)CCc2c(C)c(O)c(C)c(C)c2O1 (centres unmarked) [V]
- cytotoxicity at 1.4 µM (ARPE-19 cells [1]; [4]): ~30%
- cytotoxicity at 4.3 µM (ARPE-19 cells [1]; [4]): < 10%

SMILES: Cc1c(C)c2c(c(C)c1O)CCC(C)(C(=O)N(C)Cc1n[nH]c(=O)[nH]1)O2 (centres unmarked) [W]
- cytotoxicity at 1.4 µM (ARPE-19 cells [1]; [4]): < 12%

SMILES: Cc1coc(C)c1CN(C)C(=O)C1(C)CCc2c(C)c(O)c(C)c(C)c2O1 (centres unmarked) [X]
- cytotoxicity at 1.4 µM (ARPE-19 cells [1]; [4]): ~22%
- cytotoxicity at 4.3 µM (ARPE-19 cells [1]; [4]): < 16%

SMILES: Cc1c(C)c2c(c(C)c1O)CCC(C)(C(=O)N(C)CCCn1cccn1)O2 (centres unmarked) [Y]
- cytotoxicity at 1.4 µM (ARPE-19 cells [1]; [4]): ~22%
- cytotoxicity at 4.3 µM (ARPE-19 cells [1]; [4]): < 21%

SMILES: Cc1c(C)c2c(c(C)c1O)CCC(C)(C(=O)N1CCNC(=O)C1)O2 (centres unmarked) [ZZ]
- cytotoxicity at 1.4 µM (ARPE-19 cells [1]; [4]): ~23%
- cytotoxicity at 4.3 µM (ARPE-19 cells [1]; [4]): < 13%

SMILES: Cc1c(C)c2c(c(C)c1O)CCC(C)(C(=O)N(C)Cc1cc[nH]n1)O2 (centres unmarked) [Z]
- cytotoxicity at 1.4 µM (ARPE-19 cells [1]; [4]): ~22%
- cytotoxicity at 4.3 µM (ARPE-19 cells [1]; [4]): < 15%

SMILES: O=C(/C=C/c1ccc(O)cc1)c1ccc(O)cc1O [isoliquiritigenin, reference compound]
- protective effect against ox-LDL-induced RPE cell death (ARPE-19 cells [1]; ox-LDL 200 μg/ml (FIG. 6)): only protected RPE cells at high dose

SMILES: Cc1c(C)c2c(c(C)c1O)CCC(C)(C(=O)O)O2 (centres unmarked) [trolox]
- lysosomal integrity upon ox-LDL treatment (ARPE-19 cells [2]; ARPE-19, 36 hours (FIG. 3)): preserved lysosomal integrity
- number of intact lysosomes per cell (ARPE-19 cells [2]; trolox 10.4 μM in the presence of ox-LDL, 36 hours): higher number of intact lysosomes per cell compared to control
- EC50 (ARPE-19 cells [1]; Homo sapiens, ARPE-19, ox-LDL 200 μg/ml, 48 hours, trolox 0.65-10.4 μM, LDH release (FIG. 2), read-out: estimated EC50, suppression of ox-LDL-induced RPE death): ~5.4 µM
- relative RPE protective activity compared with other compounds (ARPE-19 cells [1]): significantly more effective
- ox-LDL-induced ROS formation in RPE cells (ARPE-19 cells [3]): suppressed ROS formation
- NF-κB activation upon ox-LDL treatment (NF-κB): suppressed pro-inflammatory transcription factor NF-κB activation
